According to PMC9823811, “Anti-Microbial Activity of Aliphatic Alcohols from Chinese Black Cardamom (Amomum tsao-ko) against Mycobacterium tuberculosis H37Rv” (Plants, 2022):
Values after ≈ are worked out from the molar mass of the structure shown.

Assays:
[1] = Cytotoxicity against Vero cells (resazurin); conditions: African green monkey
[2] = test system: Vero cells (ATCC CRL-1586); conditions: African green monkey, 72 h
[3] = test system: non-replicating M. tuberculosis H37Rv_LuxABCDE; assay: Low oxygen recovery assay (LORA), MIC against non-replicating M. tuberculosis; type: cell-based, Mycobacterium tuberculosis; conditions: for MIC: Mycobacterium tuberculosis; for MIC / MIC against M. tuberculosis H37Rv, LORA: non-replicating M. tuberculosis H37Rv, low oxygen
[4] = test system: M. tuberculosis H37Rv (ATCC 27294); assay: Microplate Alamar Blue Assay (MABA), MIC against replicating M. tuberculosis; type: cell-based, Mycobacterium tuberculosis; conditions: 7 days at 37 °C; for MIC: Mycobacterium tuberculosis, 168 h
[5] = test system: Vero cells (ATCC CRL-1586); assay: Cytotoxicity against Vero cells (resazurin); conditions: Vero cells, 72 h
[6] = MIC = lowest concentration reducing fluorescence by 90%

Row | Compound | IC50 at 72 h ([1]; Vero cells (ATCC CRL-1586)) [µg/mL] | MIC [3] [µg/mL] | MIC [4, 6] [µg/mL] | MIC ([4]; […]) [µg/mL] | other results
1 | OC/C=C/CCCCCCCO [Compound 2, (E)-2-decene-1,10-diol] | > 200 | 95.4 (≈ 554 µM) | 29.7 (≈ 172 µM) | > 20 | Vero cytotoxicity, percentage in parentheses after the IC50 bound [2]: 25%
2 | OC/C=C/CCCC/C=C/CO [Compound 5, (2E,8E)-2,8-decadiene-1,10-diol] | 72.9 (≈ 428 µM) | 5.9 (≈ 34.7 µM) | 4.3 (≈ 25.3 µM) | < 10 | 
3 | CC(=O)OC/C=C/CC/C=C/COC(C)=O [Compound 6, (2E,6E)-1,8-diacetoxy-2,6-octadiene] | 76.8 (≈ 339 µM) | > 100 | 26.1 (≈ 115 µM) | > 20 | 
4 | CCCCCCC/C=C/C=O [Compound 7, (E)-decenal] |  | > 100 | > 100 |  | 
5 | CCCCCCC/C=C/C(O)C(C)=O (stereo not drawn) [Compound 8, (E)-1-acetyl-2-decene-1-ol] |  | > 100 | > 100 |  | 
6 | CCCCCCCCC/C=C/C(O)C(C)=O (stereo not drawn) [Compound 9, (E)-1-acetyl-2-dodecene-1-ol] |  | > 100 | > 100 |  | 
7 | CC(C)=CCC/C(C)=C/CO [Compound 10, geraniol] |  | > 100 |  | > 100 | 
8 | CC(=O)OC/C=C(\C)CCC=C(C)C [Compound 11, geranyl acetate] |  | > 100 | 88.6 | > 20 | IC50 at 72 h [1]: > 200 µg/mL
9 | C=C[C@](C)(O)CC/C=C(\C)CCC=C(C)C [Compound 12, (3R)-(E)-nerolidol] |  | > 100 | > 100 |  | 
10 | NNC(=O)c1ccncc1 [Isoniazid, reference compound] |  | > 18 | 0.03 (≈ 0.219 µM) |  | 
11 | CC(=O)NC[C@H]1CN(c2ccc(N3CCOCC3)c(F)c2)C(=O)O1 [Linezolid, reference compound] |  | 0.62 (≈ 1.84 µM) | 0.16 (≈ 0.474 µM) |  | 
12 | CO[C@H]1/C=C/O[C@@]2(C)Oc3c(C)c(O)c4c(O)c(c(/C=N/N5CCN(C)CC5)c(O)c4c3C2=O)NC(=O)/C(C)=C\C=C\[C@H](C)[C@H](O)[C@@H](C)[C@@H](O)[C@@H](C)[C@H](OC(C)=O)[C@@H]1C [Rifampicin, reference compound] | > 100 | 0.14 (≈ 0.17 µM) | 0.025 (≈ 0.0304 µM) |  | 
13 | CC(=O)OC/C=C/CCCC/C=C/CO [Synthetic tsaokol A, tsaokol A] | > 200 |  | 1.4 (≈ 6.59 µM) |  | Cytotoxicity against Vero Cells IC50 [5]: identical to those of the isolated tsaokol A (3); Vero cytotoxicity, percentage in parentheses after the IC50 bound [2]: 10%
14 | (2E,8E)-1,10-diacetyl-2,8-decadiene-1,10-diol [Compound 4] |  |  |  |  | Cytotoxicity against Vero Cells IC50 [5]: 143.6 µg/mL; MIC against M. tuberculosis H37Rv, LORA [3]: 21.6 µg/mL; MIC against M. tuberculosis H37Rv, MABA [4, 6]: 1.1 µg/mL; MIC against M. tuberculosis H37Rv, MABA ([4]; […]): lower than 10 µg/mL
15 | (2E,8E)-1-acetyl-2,8-decadiene-1,10-diol [Compound 3] |  |  |  |  | Cytotoxicity against Vero Cells IC50 [5]: > 200 µg/mL; Ratio of non-replicating MIC (LORA) over replicating MIC (MABA) ([3]; LORA MIC relative to MABA MIC): only two-fold higher; MIC against M. tuberculosis H37Rv, LORA [3]: 1.4 µg/mL; MIC against M. tuberculosis H37Rv, MABA [4, 6]: 0.6 µg/mL; MIC against M. tuberculosis H37Rv, MABA ([4]; […]): lower than 10 µg/mL
16 | (E)-1-acetyl-8-decene-1,10-diol [Compound 1] |  |  |  |  | Cytotoxicity against Vero Cells IC50 [5]: > 200 µg/mL; MIC against M. tuberculosis H37Rv, LORA [3]: 61.5 µg/mL; MIC against M. tuberculosis H37Rv, MABA [4, 6]: 10.2 µg/mL; MIC against M. tuberculosis H37Rv, MABA ([4]; […]): lower than 10 µg/mL
